Test results taken from article PMC9798004 (Frontiers in Psychiatry, 2022).
Where a name gives a salt, the structure may show the parent alone. No end group written: not given here.

How the values were obtained:
Assay type in all cases: cell-based
168 GPCRs = assay: gpcrMAX panel 30 μM single-point β-arrestin screen (agonist and antagonist mode); details: antagonist mode
Protocol: Activity, or a “hit,” was defined as >30% in agonist mode, >35% in antagonist mode, or >50% in the orphan screen (agonist mode). Where these criteria were met, signal-to-noise (S/N) and coefficient of variation (CoV) were also calculated, defined as: […]
Agonist mode Antagonist modeS/N Compound mean/Baseline mean+(Baseline SD×3) EC80 mean/Compound-(Compound SD× 3)CoV Baseline mean/Compound mean-(Compound SD× 3) Compound mean/EC80 mean-(EC80 SD × 3)
Hits were verified to have S/N>1 and a CoV <1. Thresholds and subsequent validation were guided by Eurofins. Descriptive data (means ± S.E.M) was generated in Graphpad Prism (version 9.2.0, San Diego, CA).

P2RY6 = P2RY6 (Homo sapiens, UniProt Q15077); assay: PathHunter β-arrestin assay
Protocol: (§1) Follow up experiments were prioritized based on the difference between S/N and CoV. Targets with a >5-fold difference between S/N and CoV were investigated for their potential contribution to the AMB-FUBINACA toxidrome with 10-point concentration-response curves generated in technical replicate (range 1.5–30 μM) using the EC80 of the relevant agonist, where applicable in antagonist mode. Simultaneous agonist and antagonist curves were run in parallel to ensure reliability of the assay (see Supplementary Table 2), with both RC50 and signal to background aligning with historical averages, and Z' >0.5. RC50 was estimated using a four-parameter fit (CBIS Data Analysis Suite, ChemInnovation, San Diego, CA) on normalized data.

ADRA2C = target: T1, ADRA2C (Homo sapiens, UniProt P18825); assay: PathHunter β-arrestin assay; details: control agonist
T1 sequence (P18825 1-462): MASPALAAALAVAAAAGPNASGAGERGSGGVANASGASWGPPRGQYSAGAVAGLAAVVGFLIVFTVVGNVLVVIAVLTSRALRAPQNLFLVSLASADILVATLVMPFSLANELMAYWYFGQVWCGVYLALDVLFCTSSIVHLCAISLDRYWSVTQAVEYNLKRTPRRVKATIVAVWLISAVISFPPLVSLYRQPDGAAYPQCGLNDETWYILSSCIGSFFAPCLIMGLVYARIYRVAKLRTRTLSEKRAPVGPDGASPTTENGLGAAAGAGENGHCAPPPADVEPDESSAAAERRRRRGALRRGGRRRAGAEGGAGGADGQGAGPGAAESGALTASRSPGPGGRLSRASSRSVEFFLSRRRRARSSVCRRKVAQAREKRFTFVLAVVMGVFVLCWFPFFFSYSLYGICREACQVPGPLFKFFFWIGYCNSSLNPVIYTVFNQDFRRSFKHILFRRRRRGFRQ

PTGER4 = PTGER4 (Homo sapiens, UniProt P35408); assay: PathHunter β-arrestin assay; details: follow-up assays, control antagonist
Protocol: as §1

CCR6 = target: T2, CCR6 (Homo sapiens, UniProt P51684); assay: PathHunter β-arrestin assay; details: control agonist
T2 construct: purchased Eurofins DiscoverX (PathHunter gpcrMAX)
T2 sequence (P51684 1-374): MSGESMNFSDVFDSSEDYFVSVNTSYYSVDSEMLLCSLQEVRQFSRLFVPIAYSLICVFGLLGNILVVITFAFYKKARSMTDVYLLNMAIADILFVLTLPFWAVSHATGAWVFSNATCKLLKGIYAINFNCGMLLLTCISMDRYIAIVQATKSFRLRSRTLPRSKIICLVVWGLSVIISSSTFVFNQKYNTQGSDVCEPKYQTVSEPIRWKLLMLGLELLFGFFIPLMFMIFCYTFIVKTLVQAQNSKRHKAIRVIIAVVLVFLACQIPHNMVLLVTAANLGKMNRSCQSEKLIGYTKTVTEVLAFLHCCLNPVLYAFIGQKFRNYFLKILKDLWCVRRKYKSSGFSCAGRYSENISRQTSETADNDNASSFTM
Protocol: as §1

GPR119 = target: T3, GPR119 (Homo sapiens, UniProt Q8TDV5); assay: PathHunter β-arrestin assay; details: for inhibition in single-point screen: antagonist mode, 30 μM
T3 construct: purchased Eurofins DiscoverX (PathHunter gpcrMAX)
T3 sequence (Q8TDV5 1-335): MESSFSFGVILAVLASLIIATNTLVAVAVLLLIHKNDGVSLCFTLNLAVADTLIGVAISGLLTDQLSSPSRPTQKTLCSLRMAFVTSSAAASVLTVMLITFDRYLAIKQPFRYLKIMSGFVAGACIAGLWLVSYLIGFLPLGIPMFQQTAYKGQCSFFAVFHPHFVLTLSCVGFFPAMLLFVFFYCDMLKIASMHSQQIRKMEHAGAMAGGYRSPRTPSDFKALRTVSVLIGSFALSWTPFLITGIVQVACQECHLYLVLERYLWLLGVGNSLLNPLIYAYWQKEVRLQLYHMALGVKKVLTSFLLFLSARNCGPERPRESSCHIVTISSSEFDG

HCRTR1 = target: T4, HCRTR1 (Homo sapiens, UniProt O43613); assay: PathHunter β-arrestin assay; details: control agonist
T4 sequence (O43613 1-425): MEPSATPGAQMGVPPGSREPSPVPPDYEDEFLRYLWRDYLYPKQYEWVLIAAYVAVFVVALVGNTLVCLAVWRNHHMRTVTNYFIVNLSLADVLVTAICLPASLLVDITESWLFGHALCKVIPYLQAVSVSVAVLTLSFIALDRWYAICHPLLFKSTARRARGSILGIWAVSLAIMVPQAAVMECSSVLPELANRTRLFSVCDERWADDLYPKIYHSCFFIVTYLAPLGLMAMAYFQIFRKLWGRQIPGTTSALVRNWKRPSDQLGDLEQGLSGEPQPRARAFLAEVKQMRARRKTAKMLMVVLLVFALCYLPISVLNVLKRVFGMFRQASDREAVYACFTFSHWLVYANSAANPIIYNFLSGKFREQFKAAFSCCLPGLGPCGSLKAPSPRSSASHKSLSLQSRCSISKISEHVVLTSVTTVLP
Protocol: as §1

GPR35 = GPR35 (Homo sapiens, UniProt Q9HC97); assay: PathHunter β-arrestin assay; details: control agonist
CCR4 = target: T5, CCR4 (Homo sapiens, UniProt P51679); assay: PathHunter β-arrestin assay; details: for EC80: control agonist
T5 sequence (P51679 1-360): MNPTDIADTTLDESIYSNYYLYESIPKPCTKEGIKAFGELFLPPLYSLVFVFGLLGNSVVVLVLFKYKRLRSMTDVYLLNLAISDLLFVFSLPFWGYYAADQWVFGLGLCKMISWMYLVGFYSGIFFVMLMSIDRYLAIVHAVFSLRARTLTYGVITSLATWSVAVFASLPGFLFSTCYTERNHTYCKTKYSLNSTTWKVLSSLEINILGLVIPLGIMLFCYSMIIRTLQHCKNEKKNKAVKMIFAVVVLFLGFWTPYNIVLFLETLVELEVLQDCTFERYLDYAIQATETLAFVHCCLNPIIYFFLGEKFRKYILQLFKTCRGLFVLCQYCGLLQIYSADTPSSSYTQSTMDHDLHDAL
Protocol: as §1

[1] = test system: AtT20 cells wildtype (WT); assay: LDH release cytotoxicity assay; details: 30 μM
Protocol: AtT20 cells expressing either human CB1 (hCB1) or CB2 (hCB2) receptors or wildtype (WT) were grown to confluence in T75 cm^2 flasks in Dulbecco's modified eagle medium containing 10% fetal bovine serum, 100 U penicillin/streptomycin, and 80 μg/mL hygromicyin (Sigma-Aldrich/Merck; Castle Hill, NSW, Australia). Cells were plated in 96-well-microplates at 30,000 cells per well and allowed to adhere overnight in 5% CO2. The following morning, cells were treated with either vehicle (0.1% DMSO; negative control), 30 μM Δ^9-THC, or 30 μM AMB-FUBINACA. At 1 or 6 h, the amount of lactate dehydrogenase in the cell media was tested, and compared with positive control (lysed cells) as per manufacturer's instructions (Dojindo Molecular Technologies, Inc.; Rockville, MD, USA), with readings performed on a Clariostar Plus plate reader (BMG Labtech, Mornington, VIC, Australia). Experiments were performed in triplicate. In order to measure any accumulating LDH, media was not changed after initial incubation. Data is represented as means ± S.E.M. A two-way ANOVA with was performed on the data at each time point, with Tukey's multiple comparison test (α = 0.05). A p < 0.05 was considered statistically significant.

CCR8 = CCR8 (Homo sapiens, UniProt P51685); assay: PathHunter β-arrestin assay; details: control agonist
Protocol: as §1

CCR9 = target: T6, CCR9 (Homo sapiens, UniProt P51686); assay: PathHunter β-arrestin assay; details: control agonist
T6 construct: purchased Eurofins DiscoverX (PathHunter gpcrMAX)
T6 sequence (P51686 1-369): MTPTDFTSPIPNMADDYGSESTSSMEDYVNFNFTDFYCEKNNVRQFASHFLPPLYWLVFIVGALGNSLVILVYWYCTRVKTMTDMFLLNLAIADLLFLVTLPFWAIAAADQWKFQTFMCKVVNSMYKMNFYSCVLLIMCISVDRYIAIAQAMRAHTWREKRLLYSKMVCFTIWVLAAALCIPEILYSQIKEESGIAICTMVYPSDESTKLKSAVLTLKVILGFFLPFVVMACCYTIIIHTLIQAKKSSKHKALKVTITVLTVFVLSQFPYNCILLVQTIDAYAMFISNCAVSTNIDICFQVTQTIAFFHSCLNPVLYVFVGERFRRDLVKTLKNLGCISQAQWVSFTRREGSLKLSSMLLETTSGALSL
Protocol: as §1

[2] = follow-up assays, control antagonist
[3] = follow-up concentration-response assays

Chain of P2RY6 (Q15077 whole entry): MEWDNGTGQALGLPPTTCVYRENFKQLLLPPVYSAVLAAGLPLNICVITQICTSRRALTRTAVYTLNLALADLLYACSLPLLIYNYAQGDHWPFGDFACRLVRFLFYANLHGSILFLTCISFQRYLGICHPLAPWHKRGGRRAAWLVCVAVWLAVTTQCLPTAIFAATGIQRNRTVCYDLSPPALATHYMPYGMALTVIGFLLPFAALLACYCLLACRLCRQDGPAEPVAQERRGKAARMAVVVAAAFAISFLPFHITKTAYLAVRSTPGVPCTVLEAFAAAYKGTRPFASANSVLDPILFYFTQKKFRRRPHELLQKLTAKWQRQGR
Chain of GPR35 (Q9HC97 whole entry): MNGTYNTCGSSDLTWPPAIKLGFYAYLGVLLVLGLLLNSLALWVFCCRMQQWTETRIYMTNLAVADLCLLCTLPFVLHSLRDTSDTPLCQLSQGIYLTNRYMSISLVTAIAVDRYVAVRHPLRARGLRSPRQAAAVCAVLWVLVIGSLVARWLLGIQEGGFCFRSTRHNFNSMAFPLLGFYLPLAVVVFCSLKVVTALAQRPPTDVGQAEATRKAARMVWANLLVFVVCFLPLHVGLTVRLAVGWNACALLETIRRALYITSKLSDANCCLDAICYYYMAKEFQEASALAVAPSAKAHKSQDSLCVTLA
Chain of PTGER4 (P35408 whole entry): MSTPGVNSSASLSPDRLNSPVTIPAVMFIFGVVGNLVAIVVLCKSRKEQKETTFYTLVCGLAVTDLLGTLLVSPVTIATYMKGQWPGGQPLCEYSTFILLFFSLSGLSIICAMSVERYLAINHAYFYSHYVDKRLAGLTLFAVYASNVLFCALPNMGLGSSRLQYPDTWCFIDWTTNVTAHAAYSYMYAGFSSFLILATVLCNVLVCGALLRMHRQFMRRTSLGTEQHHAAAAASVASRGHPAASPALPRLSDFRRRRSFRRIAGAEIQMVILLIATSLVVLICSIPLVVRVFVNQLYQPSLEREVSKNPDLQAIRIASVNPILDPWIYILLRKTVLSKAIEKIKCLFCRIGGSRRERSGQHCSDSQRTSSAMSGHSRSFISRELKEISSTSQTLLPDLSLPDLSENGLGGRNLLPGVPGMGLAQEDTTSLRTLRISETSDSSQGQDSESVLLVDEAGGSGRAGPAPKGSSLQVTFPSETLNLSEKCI

Molecule: COC(=O)C(NC(=O)c1nn(CCCCF)c2ccccc12)C(C)(C)C (centres unmarked) [4F-MDMB-BUTINACA]
- number of off-targets inhibited (>35%) (168 GPCRs): 16

Molecule: S=C=Nc1cccc(NC(=S)NCCCCNC(=S)Nc2cccc(N=C=S)c2)c1 [MRS 2578]
- IC50 (P2RY6; [2]): 2520 nM

Molecule: O=c1ccn([C@@H]2O[C@H](COP(=O)(O)OP(=O)(O)O)[C@@H](O)[C@H]2O)c(=O)[nH]1 [UDP]
- EC80 (P2RY6; follow-up concentration-response assays, control agonist): 74.88 nM

Molecule: CCCCCn1cc(C(=O)Oc2cccc3cccnc23)c2ccccc21 [PB-22]
- number of off-targets inhibited (>35%) (168 GPCRs): 20

Molecule: Brc1c(NC2=NCCN2)ccc2nccnc12 [UK 14,304]
- EC80 (ADRA2C; [3]): 123.1 nM
- EC80 (ADRA2C; screen, CHO, RT, 2HR): 111 nM

Molecule: CCCCc1nn(-c2ccccc2C(F)(F)F)c(=O)n1Cc1ccc(-c2ccccc2S(=O)(=O)NC(=O)c2sccc2C)cc1 [L 161,982]
- IC50 (PTGER4): 15.9 nM

Molecule: CCL20: control agonist
- EC80 (CCR6; [3]): 44.68 nM
- EC80 (CCR6; screen, CHO, 37C, 2HR): 44.7 nM

Molecule: CCCCCn1nc(C(=O)NC23CC4CC(CC(C4)C2)C3)c2ccccc21 [AKB-48]
- inhibition in single-point screen (GPR119): inhibited to the greatest extent of any antagonist mode target

Molecule: CCCCCCCC/C=C\CCCCCCCC(=O)NCCO [Oleoyl Ethanolamide]
- EC80 (GPR119; screen, control agonist, HEK, 37C, 2HR): 4310 nM

Molecule: Orexin A (QPLPDCCRQKTCSCRLYELLHGAGNHAAGILTL; not fully specified (residue 1, C-terminus, bridges); cysteine pairing not given here; UniProt O43612 34-66, looked up) [control agonist]
- EC80 (HCRTR1; [3]): 10.62 nM
- EC80 (HCRTR1; screen, CHO, 37C, 2HR): 10.6 nM

Molecule: CCCOc1ccccc1-c1nc2nn[nH]c2c(=O)[nH]1 [Zaprinast]
- EC80 (GPR35; [3]): 4048 nM
- EC80 (GPR35; screen, CHO, 37C, 2HR): 12100 nM

Molecule: COc1cc2nc(N3CCC(N4CCCCC4)CC3)nc(NC3CCCCCC3)c2cc1OC [C 021 dihydrochloride]
- IC50 (CCR4; [2]): 2.58 nM

Molecule: CCCCCc1cc(O)c2c(c1)OC(C)(C)[C@@H]1CCC(C)=C[C@@H]21 [THC, Δ^9-tetrahydrocannabinol]
- LDH in cell media, normalized to total LDH ([1]; 1 h): 22.40 ± 3.44%
- LDH increase compared with vehicle ([1]; 6 h): no effect was observed

Molecule: CCCCCn1nc(C(=O)NC(C)(C)c2ccccc2)c2ccccc21 [CUMYL-PINACA]
- number of off-targets inhibited (>35%) (168 GPCRs): inhibited the greatest number of targets
- inhibition in single-point screen (GPR119): inhibited to the greatest extent of any antagonist mode target

B1: CCL1: control agonist (protein, UniProt P22362 24-96, looked up)
C-C motif chemokine 1: KSMQVPFSRCCFSFAEQEIPLRAILCYRNTSSICSNEGLIFKLKRGKEACALDTVGWVQRHRKMLRHCPSKRK
- EC80 (CCR8; [3]): 157.4 nM
- EC80 (CCR8; screen, CHO, 37C, 2HR): 157 nM

B2: CCL22: control agonist (protein, UniProt O00626 25-93, looked up)
C-C motif chemokine 22: GPYGANMEDSVCCRDYVRYRLPLRVVKHFYWTSDSCPRPGVVLLTFRDKEICADPRVPWVKMILNKLSQ
- EC80 (CCR4; [3]): 19.61 nM
- EC80 (CCR4; screen, CHO, 37C, 2HR): 6.54 nM

B3: CCL25: control agonist (protein, UniProt O15444 24-150, looked up)
C-C motif chemokine 25: QGVFEDCCLAYHYPIGWAVLRRAWTYRIQEVSGSCNLPAAIFYLPKRHRKVCGNPKSREVQRAMKLLDARNKVFAKLHHNTQTFQAGPHAVKKLSSGNSKLSSSKFSNPISSSKRNVSLLISANSGL
- EC80 (CCR9; [3]): 350 nM
- EC80 (CCR9; screen, CHO, 37C, 2HR): 370 nM
